Holding throughout (assay): cell-based
For experiment [1], the target named is T1, hNav1.5 (Homo sapiens, UniProt Q14524).
Experiment [2] has as its target T2, hNav1.7 (Homo sapiens, UniProt Q15858). In kind it is cell-based.
Experiment [3] has as its target T1, hNav1.5. The source holds these as a separate data set.
The target of experiment [4] is T2, hNav1.7.
Experiment [5] concerns the target T3, hNav1.3 (Homo sapiens, UniProt Q9NY46).
Experiment [6] addresses T3, hNav1.3. In kind it is cell-based. As to conditions: Nav1.3 Use IC50.
Setting [7] is: IonWorks Quattro, clamped to −110 mV, depolarized to −10 mV, 5 min after compound, n=2, read-out: IWQ Use Nav1.5.
[8] abbreviates: IonWorks Quattro, clamped to −110 mV, depolarized to −10 mV, 5 min after compound, n=2, read-out: IWQ Use Nav1.3.
[9] abbreviates: IonWorks Quattro, clamped to −110 mV, depolarized to −10 mV, 5 min after compound, n=2, read-out: IWQ Use Nav1.7.

Here are results for six molecules from patent US9340590B2 (priority 2011, dated 2016).

pIC50: −log10 of the molar value. Read-outs that look alike come from different tables or passages of the source. Positions of bridges follow the written chain, without caps; N, C: chain ends. Non-standard residues stand in square brackets, D forms with d. Residues, ends and D or L forms follow the SMILES beside them. 1Nal = N[C@@H](Cc1cccc2ccccc12)C(=O)O

T1 sequence (Q14524 whole entry, looked up): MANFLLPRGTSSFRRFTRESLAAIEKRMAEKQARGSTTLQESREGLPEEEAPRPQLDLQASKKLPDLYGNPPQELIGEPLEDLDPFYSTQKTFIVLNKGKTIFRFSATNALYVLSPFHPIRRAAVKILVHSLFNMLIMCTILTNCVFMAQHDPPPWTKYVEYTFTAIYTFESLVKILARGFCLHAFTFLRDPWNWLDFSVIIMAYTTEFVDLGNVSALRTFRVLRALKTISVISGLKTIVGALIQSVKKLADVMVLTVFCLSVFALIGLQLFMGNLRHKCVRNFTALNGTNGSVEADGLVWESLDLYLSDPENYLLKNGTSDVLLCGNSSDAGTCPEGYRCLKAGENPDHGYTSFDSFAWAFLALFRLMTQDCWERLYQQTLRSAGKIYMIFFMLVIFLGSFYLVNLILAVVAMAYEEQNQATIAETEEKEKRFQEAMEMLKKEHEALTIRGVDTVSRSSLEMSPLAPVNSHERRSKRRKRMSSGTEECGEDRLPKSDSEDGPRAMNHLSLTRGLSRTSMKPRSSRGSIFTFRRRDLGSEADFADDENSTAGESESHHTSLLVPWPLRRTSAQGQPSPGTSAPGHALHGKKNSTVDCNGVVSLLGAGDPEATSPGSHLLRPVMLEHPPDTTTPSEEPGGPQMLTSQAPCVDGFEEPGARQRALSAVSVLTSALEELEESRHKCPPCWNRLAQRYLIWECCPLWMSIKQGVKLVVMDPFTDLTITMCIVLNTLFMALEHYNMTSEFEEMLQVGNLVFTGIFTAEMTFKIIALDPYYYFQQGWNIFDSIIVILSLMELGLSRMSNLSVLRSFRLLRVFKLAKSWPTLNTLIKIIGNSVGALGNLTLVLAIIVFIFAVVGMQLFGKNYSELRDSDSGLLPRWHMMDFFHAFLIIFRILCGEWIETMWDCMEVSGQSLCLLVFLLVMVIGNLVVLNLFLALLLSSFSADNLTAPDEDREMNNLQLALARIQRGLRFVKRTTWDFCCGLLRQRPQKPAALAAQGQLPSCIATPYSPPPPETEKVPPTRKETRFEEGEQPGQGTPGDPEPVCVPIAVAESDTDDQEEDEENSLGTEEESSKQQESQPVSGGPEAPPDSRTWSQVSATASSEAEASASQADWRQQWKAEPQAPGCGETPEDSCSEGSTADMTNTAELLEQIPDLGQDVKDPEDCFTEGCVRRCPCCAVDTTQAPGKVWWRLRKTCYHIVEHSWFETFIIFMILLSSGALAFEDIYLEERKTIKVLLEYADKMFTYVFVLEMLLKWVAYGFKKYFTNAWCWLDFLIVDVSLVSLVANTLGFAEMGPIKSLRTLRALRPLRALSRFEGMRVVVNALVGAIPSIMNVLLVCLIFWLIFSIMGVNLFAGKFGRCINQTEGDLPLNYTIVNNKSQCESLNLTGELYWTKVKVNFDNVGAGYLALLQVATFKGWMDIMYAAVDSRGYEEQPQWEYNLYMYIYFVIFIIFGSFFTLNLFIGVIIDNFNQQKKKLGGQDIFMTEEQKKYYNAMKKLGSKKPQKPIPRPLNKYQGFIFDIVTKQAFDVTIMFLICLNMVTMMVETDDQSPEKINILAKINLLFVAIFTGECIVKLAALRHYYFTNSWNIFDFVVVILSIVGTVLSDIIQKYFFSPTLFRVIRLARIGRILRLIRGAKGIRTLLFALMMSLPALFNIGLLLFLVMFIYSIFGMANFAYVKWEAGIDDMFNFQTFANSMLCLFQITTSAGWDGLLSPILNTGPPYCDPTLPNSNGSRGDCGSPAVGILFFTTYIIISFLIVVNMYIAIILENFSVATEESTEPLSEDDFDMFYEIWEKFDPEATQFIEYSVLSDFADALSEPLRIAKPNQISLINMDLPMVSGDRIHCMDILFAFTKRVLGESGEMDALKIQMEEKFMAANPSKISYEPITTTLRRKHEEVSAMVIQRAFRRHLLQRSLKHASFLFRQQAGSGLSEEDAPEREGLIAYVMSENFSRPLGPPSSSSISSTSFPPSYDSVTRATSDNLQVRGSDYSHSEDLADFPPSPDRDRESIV
T2 sequence (Q15858 whole entry, looked up): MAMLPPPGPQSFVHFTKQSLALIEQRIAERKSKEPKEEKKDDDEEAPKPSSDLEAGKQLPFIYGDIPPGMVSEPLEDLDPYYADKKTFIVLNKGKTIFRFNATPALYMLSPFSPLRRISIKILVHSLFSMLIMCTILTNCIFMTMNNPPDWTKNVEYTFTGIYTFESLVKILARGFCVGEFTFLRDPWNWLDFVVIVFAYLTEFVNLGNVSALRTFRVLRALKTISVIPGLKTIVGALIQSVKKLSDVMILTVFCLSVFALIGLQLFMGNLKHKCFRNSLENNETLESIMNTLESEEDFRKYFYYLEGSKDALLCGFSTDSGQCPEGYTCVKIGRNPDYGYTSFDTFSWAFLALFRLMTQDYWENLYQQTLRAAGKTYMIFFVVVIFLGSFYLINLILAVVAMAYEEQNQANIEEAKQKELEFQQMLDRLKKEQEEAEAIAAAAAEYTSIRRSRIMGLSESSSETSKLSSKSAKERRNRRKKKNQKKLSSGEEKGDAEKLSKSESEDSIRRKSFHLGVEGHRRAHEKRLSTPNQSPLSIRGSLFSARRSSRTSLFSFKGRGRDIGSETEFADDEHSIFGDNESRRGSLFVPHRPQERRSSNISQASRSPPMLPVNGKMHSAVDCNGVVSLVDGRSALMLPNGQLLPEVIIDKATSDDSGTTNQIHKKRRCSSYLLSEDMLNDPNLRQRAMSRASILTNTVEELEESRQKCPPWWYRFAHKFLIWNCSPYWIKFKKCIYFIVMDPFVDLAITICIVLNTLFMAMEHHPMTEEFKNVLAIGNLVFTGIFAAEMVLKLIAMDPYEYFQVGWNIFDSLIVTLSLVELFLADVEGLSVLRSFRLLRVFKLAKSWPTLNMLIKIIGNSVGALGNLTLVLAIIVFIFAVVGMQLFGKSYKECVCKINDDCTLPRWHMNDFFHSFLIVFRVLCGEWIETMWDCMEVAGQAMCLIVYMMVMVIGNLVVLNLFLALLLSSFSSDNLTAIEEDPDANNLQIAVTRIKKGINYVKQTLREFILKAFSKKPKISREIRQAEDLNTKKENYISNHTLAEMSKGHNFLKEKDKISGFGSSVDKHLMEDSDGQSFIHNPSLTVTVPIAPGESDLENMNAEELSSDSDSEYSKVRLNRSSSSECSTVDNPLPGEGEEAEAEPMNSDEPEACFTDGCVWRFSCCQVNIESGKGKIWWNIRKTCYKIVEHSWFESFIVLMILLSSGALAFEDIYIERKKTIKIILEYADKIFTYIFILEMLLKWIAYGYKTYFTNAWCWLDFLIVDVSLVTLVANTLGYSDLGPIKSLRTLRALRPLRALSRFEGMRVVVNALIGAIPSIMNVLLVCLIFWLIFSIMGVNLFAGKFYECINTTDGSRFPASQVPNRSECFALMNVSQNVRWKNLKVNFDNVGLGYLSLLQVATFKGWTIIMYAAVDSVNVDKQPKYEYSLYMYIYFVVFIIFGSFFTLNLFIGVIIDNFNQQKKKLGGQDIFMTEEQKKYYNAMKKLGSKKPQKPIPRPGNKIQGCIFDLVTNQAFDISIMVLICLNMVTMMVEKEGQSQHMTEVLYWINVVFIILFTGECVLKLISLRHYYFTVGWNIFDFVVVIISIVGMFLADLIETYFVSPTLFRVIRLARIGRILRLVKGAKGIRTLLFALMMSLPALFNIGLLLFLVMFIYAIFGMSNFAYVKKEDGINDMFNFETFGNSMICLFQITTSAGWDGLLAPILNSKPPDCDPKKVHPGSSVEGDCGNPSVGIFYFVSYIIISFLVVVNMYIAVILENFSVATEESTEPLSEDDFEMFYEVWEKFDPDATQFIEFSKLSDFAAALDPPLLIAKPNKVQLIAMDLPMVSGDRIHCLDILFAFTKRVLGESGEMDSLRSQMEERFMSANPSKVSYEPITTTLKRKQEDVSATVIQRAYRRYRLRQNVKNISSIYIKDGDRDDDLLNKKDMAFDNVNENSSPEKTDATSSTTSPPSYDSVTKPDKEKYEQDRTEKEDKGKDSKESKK

With `CC[C@H](C)[C@@H]1NC(=O)[C@@H]2CSSC[C@@H]3NC(=O)[C@H](C(C)C)NC(=O)[C@H](CC(C)C)NC(=O)[C@H](CC(N)=O)NC(=O)[C@@H]4CCCN4C(=O)[C@H](CCCNC(=N)N)NC(=O)[C@H](CSSC[C@H](NC(=O)[C@@H](N)Cc4cccc5ccccc45)C(=O)N[C@@H](CC(C)C)C(=O)NCC(=O)N[C@@H](Cc4ccccc4)C(=O)N[C@@H](CCSC)C(=O)N[C@@H](CCCNC(=N)N)C(=O)N[C@@H](CCCCN)C(=O)N2)NC(=O)[C@H](CSSC[C@@H](C(=O)N[C@@H](CCCCN)C(=O)N[C@@H](Cc2ccc(O)cc2)C(=O)N[C@H](C(=O)N[C@@H](Cc2ccccc2)C(N)=O)C(C)C)NC(=O)[C@H](Cc2c[nH]c4ccccc24)NC(=O)[C@H](CCCCN)NC(=O)[C@H](Cc2c[nH]cn2)NC(=O)[C@H]([C@@H](C)O)NC(=O)[C@H](CCCNC(=N)N)NC(=O)[C@H](CO)NC3=O)NC(=O)[C@H](CCCCN)NC(=O)[C@H](CC(=O)O)NC(=O)[C@H](CC(N)=O)NC(=O)[C@H](CC(=O)O)NC(=O)[C@@H]2CCCN2C1=O` [SEQ ID NO: 77] (H-[1Nal]CLGFMRKCIPDNDKCCRPNLVCSRTHKWCKYVF-NH2; disulfide 2-17, 9-23, 16-30), the pIC50 in experiment [1] (setting [7]) is 4.87; in experiment [2], 6.96; in experiment [3] it was 5.12; in experiment [4] (Nav1.7 Use IC50), 7.64; in experiment [5] (setting [8]), 6.85; in experiment [6] it was 7.18.

Regarding `CC[C@H](C)[C@@H]1NC(=O)[C@@H]2CSSC[C@@H]3NC(=O)[C@H](C(C)C)NC(=O)[C@H](CC(C)C)NC(=O)[C@H](CC(N)=O)NC(=O)[C@@H]4CCCN4C(=O)[C@H](CCCNC(=N)N)NC(=O)[C@H](CSSC[C@H](NC(=O)[C@@H](N)CC(=O)O)C(=O)N[C@@H](CC(C)C)C(=O)NCC(=O)N[C@@H](Cc4ccccc4)C(=O)N[C@@H](Cc4ccccc4)C(=O)N[C@@H](CCCNC(=N)N)C(=O)N[C@@H](CCCCN)C(=O)N2)NC(=O)[C@H](CSSC[C@@H](C(=O)N[C@@H](CCCCN)C(=O)N[C@@H](Cc2ccc(O)cc2)C(=O)N[C@H](C(=O)N[C@@H](Cc2ccccc2)C(N)=O)C(C)C)NC(=O)[C@H](Cc2c[nH]c4ccccc24)NC(=O)[C@H](CCCCN)NC(=O)[C@H](Cc2cnc[nH]2)NC(=O)[C@H]([C@@H](C)O)NC(=O)[C@H](CCCNC(=N)N)NC(=O)[C@H](CO)NC3=O)NC(=O)[C@H](CCCCN)NC(=O)[C@H](CC(=O)O)NC(=O)[C@H](CC(N)=O)NC(=O)[C@H](CC(=O)O)NC(=O)[C@@H]2CCCN2C1=O` [SEQ ID NO: 89] (H-DCLGFFRKCIPDNDKCCRPNLVCSRTHKWCKYVF-NH2; disulfide 2-17, 9-23, 16-30), the pIC50 in experiment [1] (setting [7]) is 5.04; in experiment [2] it was 7.30; in experiment [3] it was 5.50; in experiment [4] (Nav1.7 Use IC50), 7.82; in experiment [5] (setting [8]), 7.52; in experiment [6] it was 7.80.

For `CCCC[C@@H]1NC(=O)[C@H](Cc2ccccc2)NC(=O)CNC(=O)[C@H](CC(C)C)NC(=O)[C@@H](NC(=O)[C@@H](N)CC(=O)O)CSSC[C@@H]2NC(=O)[C@@H]3CSSC[C@@H](C(=O)N[C@@H](CCCCN)C(=O)N[C@@H](Cc4ccc(O)cc4)C(=O)N[C@H](C(=O)N[C@@H](Cc4ccccc4)C(N)=O)C(C)C)NC(=O)[C@H](Cc4c[nH]c5ccccc45)NC(=O)[C@H](CCCCN)NC(=O)[C@H](Cc4c[nH]cn4)NC(=O)[C@H]([C@@H](C)O)NC(=O)[C@H](CCCNC(=N)N)NC(=O)[C@H](CO)NC(=O)[C@H](CSSC[C@H](NC(=O)[C@H](CCCCN)NC(=O)[C@H](CCCNC(=N)N)NC1=O)C(=O)N[C@@H]([C@@H](C)CC)C(=O)N1CCC[C@H]1C(=O)N[C@@H](CC(=O)O)C(=O)N[C@@H](CC(N)=O)C(=O)N[C@@H](CC(=O)O)C(=O)N[C@@H](CCCCN)C(=O)N3)NC(=O)[C@H](C(C)C)NC(=O)[C@H](CC(C)C)NC(=O)[C@H](CC(N)=O)NC(=O)[C@@H]1CCCN1C(=O)[C@H](CCCNC(=N)N)NC2=O` [SEQ ID NO: 123], the pIC50 in experiment [1] (setting [7]) was 5.35; in experiment [2] (setting [9]), 7.30; in experiment [3], 5.94; in experiment [4] (read-out: Nav1.7 Use IC50), 8.10; in experiment [5] (setting [8]) it was 7.70; in experiment [6], 8.05.

For the molecule `CC[C@H](C)[C@@H]1NC(=O)[C@@H]2CSSC[C@@H]3NC(=O)[C@H](C(C)C)NC(=O)[C@H](CC(C)C)NC(=O)[C@H](CC(N)=O)NC(=O)[C@@H]4CCCN4C(=O)[C@H](CCCNC(=N)N)NC(=O)[C@H](CSSC[C@H](NC(=O)[C@@H](N)CC(=O)O)C(=O)N[C@@H](CC(C)C)C(=O)NCC(=O)N[C@@H](Cc4ccccc4)C(=O)N[C@@H](Cc4cccc5ccccc45)C(=O)N[C@@H](CCCNC(=N)N)C(=O)N[C@@H](CCCCN)C(=O)N2)NC(=O)[C@H](CSSC[C@@H](C(=O)N[C@@H](CCCCN)C(=O)N[C@@H](Cc2ccc(O)cc2)C(=O)N[C@H](C(=O)N[C@@H](Cc2ccccc2)C(N)=O)C(C)C)NC(=O)[C@H](Cc2c[nH]c4ccccc24)NC(=O)[C@H](CCCCN)NC(=O)[C@H](Cc2c[nH]cn2)NC(=O)[C@H]([C@@H](C)O)NC(=O)[C@H](CCCNC(=N)N)NC(=O)[C@H](CO)NC3=O)NC(=O)[C@H](CCCCN)NC(=O)[C@H](CC(=O)O)NC(=O)[C@H](CC(N)=O)NC(=O)[C@H](CC(=O)O)NC(=O)[C@@H]2CCCN2C1=O` [SEQ ID NO: 161], the pIC50 in experiment [1] (IWQ Use Nav1.5) is 5.63; in experiment [2] (setting [9]), 8.15; in experiment [3], 6.45; in experiment [4] (Nav1.7 Use IC50), 8.52; in experiment [5] (setting [8]), 8.22; in experiment [6], 8.40.

Turning to `CC[C@H](C)[C@@H]1NC(=O)[C@@H]2CSSC[C@@H]3NC(=O)[C@H](C(C)C)NC(=O)[C@H](CC(C)C)NC(=O)[C@H](CC(N)=O)NC(=O)[C@@H]4CCCN4C(=O)[C@H](CCCNC(=N)N)NC(=O)[C@H](CSSC[C@H](NC(=O)[C@@H](N)CC(=O)O)C(=O)N[C@@H](CC(C)C)C(=O)NCC(=O)N[C@@H](CC4CCCCC4)C(=O)N[C@@H](CCSC)C(=O)N[C@@H](CCCNC(=N)N)C(=O)N[C@@H](CCCCN)C(=O)N2)NC(=O)[C@H](CSSC[C@@H](C(=O)N[C@@H](CCCCN)C(=O)N[C@@H](Cc2ccc(O)cc2)C(=O)N[C@H](C(=O)N[C@@H](Cc2ccccc2)C(N)=O)C(C)C)NC(=O)[C@H](Cc2c[nH]c4ccccc24)NC(=O)[C@H](CCCCN)NC(=O)[C@H](Cc2cnc[nH]2)NC(=O)[C@H]([C@@H](C)O)NC(=O)[C@H](CCCNC(=N)N)NC(=O)[C@H](CO)NC3=O)NC(=O)[C@H](CCCCN)NC(=O)[C@H](CC(=O)O)NC(=O)[C@H](CC(N)=O)NC(=O)[C@H](CC(=O)O)NC(=O)[C@@H]2CCCN2C1=O` [SEQ ID NO: 243], the pIC50 in experiment [1] (setting [7]) was 5.16; in experiment [2] (setting [9]) it was 8.00; in experiment [3] it was 5.47; in experiment [4] (Nav1.7 Use IC50), 8.52; in experiment [5] it was 7.70; in experiment [6] it was 8.15.

On to `CC[C@H](C)[C@@H]1NC(=O)[C@@H]2CSSC[C@@H]3NC(=O)[C@H](C(C)C)NC(=O)[C@H](CC(C)C)NC(=O)[C@H](CC(N)=O)NC(=O)[C@@H]4CCCN4C(=O)[C@H](CCCNC(=N)N)NC(=O)[C@H](CSSC[C@H](NC(=O)[C@@H](N)CC(=O)O)C(=O)N[C@@H](CC(C)C)C(=O)NCC(=O)N[C@@H](Cc4ccccc4)C(=O)N[C@@H](CC4CCCCC4)C(=O)N[C@@H](CCCNC(=N)N)C(=O)N[C@@H](CCCCN)C(=O)N2)NC(=O)[C@H](CSSC[C@@H](C(=O)N[C@@H](CCCCN)C(=O)N[C@@H](Cc2ccc(O)cc2)C(=O)N[C@H](C(=O)N[C@@H](Cc2ccccc2)C(N)=O)C(C)C)NC(=O)[C@H](Cc2c[nH]c4ccccc24)NC(=O)[C@H](CCCCN)NC(=O)[C@H](Cc2cnc[nH]2)NC(=O)[C@H]([C@@H](C)O)NC(=O)[C@H](CCCNC(=N)N)NC(=O)[C@H](CO)NC3=O)NC(=O)[C@H](CCCCN)NC(=O)[C@H](CC(=O)O)NC(=O)[C@H](CC(N)=O)NC(=O)[C@H](CC(=O)O)NC(=O)[C@@H]2CCCN2C1=O` [SEQ ID NO: 245], for which the pIC50 in experiment [1] (setting [7]) is 5.63; in experiment [2] (setting [9]) it was 7.70; in experiment [3], 5.57; in experiment [4] (Nav1.7 Use IC50), 8.52; in experiment [6] it was 8.70.
